Measurements taken from article PMC10454726 (International Journal of Molecular Sciences, 2023).

Tests used:
[1] = tested on: female Wistar rats; assay: Acute oral toxicity (OECD guideline 425); assay type: in vivo; settings: for toxic effects at the macroscopic level (necropsy images): 175, 550, and 2000 mg/kg; for AOT (acute oral toxicity): female Wistar rats
Experimental: They were kept in standard polypropylene boxes under controlled temperature (24 ± 4 °C) on a 12 h light/dark cycle and provided conventional food (formula 5001, Rat Chow) and purified water ad libitum. […] At the end of the experiment, the animals were taken to the humanitarian endpoint by the intraperitoneal (ip) administration of 75 mg/kg of sodium pentobarbital to perform a necropsy in the bioterium of FESC, UNAM. During the necropsy, blood serum was extracted to quantify glucose, triacylglycerides, cholesterol, and insulin. The study was conducted based on the guidelines of the Declaration of Helsinki and approved by the Institutional Review Board: Internal Committee for the Care and Use of Experimentation Animals (CICUAE, according to the initials in Spanish, C23_02 on March 2023) of the FESC UNAM (Mexico). It complies with the Mexican norm for this matter (NOM-062-ZOO-1999, Technical Specifications for the Production, Care, and Use of Laboratory Animals, SAGARPA), as well as the Guide for the Care and Use of Laboratory Animals of the National Research Council and National Institutes of Health (NIH Publications No. 8023, revised 1978).
The female Wistar rats (n = 3) were used to obtain the AOT based on the procedures of Guide Number 425 of the Organization for Economic Cooperation and Development (OECD). The rats were closely monitored for 48 h after receiving oral doses of FC-114 or FC-122. Rat 1 received 175 mg/kg, rat 2 received 550 mg/kg, and rat 3 received 2000 mg/kg. They were then observed for 14 days until a necropsy to check for any toxic effects.

[2] = tested on: streptozotocin-induced diabetic rats; assay: Serum determinations (insulin, cholesterol) in streptozotocin-induced diabetic rats; assay type: in vivo, Wistar rat; settings: 14 days, FC-114 51.3 mg/kg/day
Experimental: To obtain serum from each rat under anesthesia, a 10 mL blood sample was taken via cardiac puncture of the exposed heart. After being left at room temperature for 10 min, the blood samples were centrifuged at 2500 rpm (1200× g) for 10 min to obtain the serum. The resulting serum was then frozen at −70 °C until needed. Prior to usage, the serum samples were thawed at room temperature.
The diabetic animals in group 2 (untreated) were given 4% v/v aqueous EtOH solution (vehicle of treatments) in a volume of 6.5 mL/kg body weight. The other groups (3–7) received different treatments for 14 days (weeks 5 to 7). […] All of the treatments were at equimolar doses of PIO and adjusted to the weekly weight of each rat. […] The commercial PIO tablet (30 mg) was crushed in 7.5 mL of vehicle and given to each animal in 4.0 mg/mL of suspension. The FC-114 and FC-122 suspensions were created at 6.2 and 6.0 mg/mL, respectively. The commercial acarbose tablet (50 mg) was crushed in 7.5 mL of the vehicle and given to each animal in a suspension of 6.6 mg/mL. Each suspension was used within 2 days of its preparation, and the administration volume was near to 2.5 mL for each rat.
The blood determinations were carried out using different kits: glucose (1001191, Spinreact, Girona, Spain, 1045), TAG (41032, Spinreact, LIQ557), insulin (RAB09A-1EA-KC, Sigma, 11092020), total cholesterol (41020, Spinreact, LIQ384), and HDL cholesterol (1001095, Spinreact, H166). Mathematically, the c-LDL cholesterol was determined by subtracting the HDL fraction from the total cholesterol.

[3] = tested on: PTP1B; set-up: method as in PMID 34299651; settings: cited from earlier work
[4] = molecular target: T1, PTP1B1–400 (Homo sapiens, UniProt P18031); assay: Enzyme kinetic assay for PTP1B1–400 (pNPP substrate); assay type: biochemical
T1 construct: we performed an enzyme kinetic assay for PTP1B1–400
T1 sequence (P18031 1-400): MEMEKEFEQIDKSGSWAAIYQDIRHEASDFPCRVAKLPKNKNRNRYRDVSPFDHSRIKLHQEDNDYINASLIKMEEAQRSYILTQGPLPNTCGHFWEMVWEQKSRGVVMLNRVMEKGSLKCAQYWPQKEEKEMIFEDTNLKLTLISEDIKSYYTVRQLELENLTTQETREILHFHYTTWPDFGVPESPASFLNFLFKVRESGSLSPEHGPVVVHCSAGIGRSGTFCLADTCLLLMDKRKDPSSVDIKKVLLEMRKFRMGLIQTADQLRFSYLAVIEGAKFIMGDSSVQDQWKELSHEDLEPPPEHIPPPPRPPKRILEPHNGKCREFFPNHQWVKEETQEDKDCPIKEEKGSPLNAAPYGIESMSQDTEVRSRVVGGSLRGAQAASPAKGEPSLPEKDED
From the text: As pointed out in this paper’s introduction, we have reported the PTP1B inhibitory activity of FC-114 and FC-122 [53]. […] Nevertheless, the inhibition type of FC-122 remained unknown to date. Therefore, we performed an enzyme kinetic assay for PTP1B1–400 [59, 60, 61] using p-nitrophenyl phosphate (pNPP) as substrate at different concentrations as well as the inhibitor. Figure 2C depicts the double reciprocal plot of Lineweaver-Burk, showing the effect of FC-122 on the PTP1B activity.
The kinetic studies for PTP1B and α-glucosidase were carried out under the same conditions described in the references.

SMILES	toxic effects at the macroscopic level (necropsy images) [1]	Toxic Effects ([1]; dose 175 mg/kg oral)	Weight Gain for 2 Weeks ([1]; dose 175 mg/kg oral)	Toxic Effects ([1]; dose 550 mg/kg oral)	Weight Gain for 2 Weeks ([1]; dose 550 mg/kg oral)	Toxic Effects ([1]; dose 2000 mg/kg oral)	Weight Gain for 2 Weeks ([1]; dose 2000 mg/kg oral)	AOT (acute oral toxicity) [1]	HDL levels [2]	calculated LDL cholesterol [2]	serum insulin levels [2]	serum total cholesterol [2]	Inhibition type (PTP1B) [3]	Ki [3]	Inhibition type (PTP1B) ([4]; Lineweaver-Burk plot)	Ki ([4]; substrate pNPP)
CC1(C)c2[nH]c3ccc(C(F)(F)F)cc3c2C[C@]2(C)[C@H]3C(=O)C=C4[C@@H]5C[C@@](C)(C(=O)O)CC[C@]5(C)CC[C@@]4(C)[C@]3(C)CC[C@@H]12 [FC-114]	No toxic effects were observed	None	22.8 g	None	23.4 g	None	21.5 g	higher than 2000 mg/kg	without affecting	decreased	dramatically increasing trend	decreased	non-competitive	3.9 µM	–	–
Cc1ccc(-n2ncc3c2C(C)(C)[C@@H]2CC[C@]4(C)[C@H](C(=O)C=C5[C@@H]6C[C@@](C)(C(=O)O)CC[C@]6(C)CC[C@]54C)[C@@]2(C)C3)cc1 [FC-122]	No toxic effects were observed	None	23.5 g	None	25.2 g	None	26.4 g	higher than 2000 mg/kg	–	–	–	–	–	–	uncompetitive	0.44 µM
